# Measurements published in US8877751B2, “Benzothiazolone derivatives” (Merck Patent GmbH, priority 2009, dated 2014).
# Target: T1, Met kinase (Homo sapiens, UniProt P08581)
# T1 construct: 6His (N); purchased Upstate 14-526; host or cells: Sf21 insect cells (S. frugiperda), baculovirus
# Experiment: Met kinase inhibition (enzyme assay), flashplate method
# Type: biochemical
# Description: According to the manufacturer's data (Met, active, Upstate, catalogue No. 14-526), Met kinase is expressed for the purposes of protein production in insect cells (Sf21; S. frugiperda) and subsequent affinity-chromatographic purification as “N-terminal 6His-tagged” recombinant human protein in a baculovirus expression vector.
# Flashplate Method (Met Kinase)
# The test plates used are 96-well Flashplate^R microtitre plates from Perkin Elmer (Cat. No. SMP200). The components of the kinase reaction described below are pipetted into the assay plate. The Met kinase and the substrate poly Ala-Glu-Lys-Tyr, (pAGLT, 6:2:5:1), are incubated for 3 hrs at room temperature with radioactively labelled ^33P-ATP in the presence and absence of test substances in a total volume of 100 μl. The reaction is terminated using 150 μl of a 60 mM EDTA solution. After incubation for a further 30 min at room temperature, the supernatants are filtered off with suction, and the wells are washed three times with 200 μl of 0.9% NaCl solution each time. The measurement of the bound radioactivity is carried out by means of a scintillation measuring instrument (Topcount NXT, Perkin-Elmer).
# The full value used is the inhibitor-free kinase reaction. This should be approximately in the range 6000-9000 cpm. The pharmacological zero value used is staurosporin in a final concentration of 0.1 mM. The inhibitory values (IC50) are determined using the RS1_MTS program.
# Kinase reaction conditions per well: • 30 μl of assay buffer • 10 μl of substance to be tested in assay buffer with 10% of DMSO • 10 μl of ATP (final concentration 1 μM cold, 0.35 μCi of ^33P-ATP) • 50 μl of Met kinase/substrate mixture in assay buffer; • (10 ng of enzyme/well, 50 ng of pAGLT/well)
# Solutions Used: • Assay buffer: • 50 mM HEPES • 3 mM magnesium chloride • 3 μM sodium orthovanadate • 3 mM manganese(II) chloride • 1 mM dithiothreitol (DTT) • pH=7.5 (to be set using sodium hydroxide) • Stop solution: • 60 mM Titriplex III (EDTA) • ^33P-ATP: Perkin-Elmer; • Met kinase: Upstate, Cat. No. 14-526, Stock 1 μg/10 μl; spec. activity 954 U/mg; • Poly-Ala-Glu-Lys-Tyr, 6:2:5:1: Sigma Cat. No. P1152
# T1 sequence (P08581 25-1390): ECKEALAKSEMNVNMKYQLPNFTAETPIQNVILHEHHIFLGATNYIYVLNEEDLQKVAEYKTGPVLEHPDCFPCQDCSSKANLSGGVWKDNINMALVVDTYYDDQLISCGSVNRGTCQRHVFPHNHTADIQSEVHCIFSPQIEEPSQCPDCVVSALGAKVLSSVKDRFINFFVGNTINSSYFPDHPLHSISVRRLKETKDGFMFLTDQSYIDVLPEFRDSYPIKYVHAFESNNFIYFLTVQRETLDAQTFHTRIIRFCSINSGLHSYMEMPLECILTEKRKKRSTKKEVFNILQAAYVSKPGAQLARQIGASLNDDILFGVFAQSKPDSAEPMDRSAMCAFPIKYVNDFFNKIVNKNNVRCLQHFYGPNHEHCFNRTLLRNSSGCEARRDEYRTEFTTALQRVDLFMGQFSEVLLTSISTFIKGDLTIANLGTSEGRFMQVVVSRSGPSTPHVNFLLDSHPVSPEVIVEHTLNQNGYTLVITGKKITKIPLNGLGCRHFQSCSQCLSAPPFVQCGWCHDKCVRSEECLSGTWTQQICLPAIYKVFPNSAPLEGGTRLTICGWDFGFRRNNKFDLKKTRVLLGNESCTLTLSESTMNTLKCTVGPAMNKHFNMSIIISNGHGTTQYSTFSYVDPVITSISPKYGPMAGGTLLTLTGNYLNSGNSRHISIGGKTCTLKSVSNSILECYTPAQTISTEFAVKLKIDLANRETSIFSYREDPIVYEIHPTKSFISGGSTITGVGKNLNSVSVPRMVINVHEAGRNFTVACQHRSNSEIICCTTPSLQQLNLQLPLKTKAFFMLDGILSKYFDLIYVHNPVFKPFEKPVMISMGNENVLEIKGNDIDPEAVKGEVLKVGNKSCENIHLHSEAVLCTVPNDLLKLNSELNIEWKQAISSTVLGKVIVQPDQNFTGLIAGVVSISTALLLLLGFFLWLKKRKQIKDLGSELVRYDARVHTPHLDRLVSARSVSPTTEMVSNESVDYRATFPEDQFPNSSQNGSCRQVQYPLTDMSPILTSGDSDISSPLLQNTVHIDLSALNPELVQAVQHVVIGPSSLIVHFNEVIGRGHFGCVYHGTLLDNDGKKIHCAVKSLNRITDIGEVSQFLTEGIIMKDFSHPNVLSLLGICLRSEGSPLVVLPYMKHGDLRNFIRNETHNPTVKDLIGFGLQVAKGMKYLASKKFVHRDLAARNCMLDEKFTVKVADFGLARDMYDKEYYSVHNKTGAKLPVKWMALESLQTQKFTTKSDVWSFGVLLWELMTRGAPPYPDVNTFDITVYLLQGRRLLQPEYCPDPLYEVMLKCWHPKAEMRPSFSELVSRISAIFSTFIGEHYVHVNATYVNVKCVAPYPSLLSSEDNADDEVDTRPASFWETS
row,IC50 [nM],Compound
1,10 to 1000,"CN1CCN(CCCOC(=O)Nc2cccc(Cn3c(=O)sc4ccc(Cl)cc43)c2)CC1 [Compound A13, 3-(4-methylpiperazin-1-yl)propyl [3-(5-chloro-2-oxobenzothiazol-3-ylmethyl)phenyl]carbamate]"
2,10 to 1000,"Cc1nc(-c2cccc(Cn3c(=O)sc4ccc(Cl)cc43)c2)no1 [Compound A12, 5-chloro-3-[3-(5-methyl-1,2,4-oxadiazol-3-yl)benzyl]-3H-benzothiazol-2-one]"
3,10 to 1000,"O=c1sc2ccc(C(F)(F)F)cc2n1Cc1cccc(-c2ncc(OCCN3CCOCC3)cn2)c1 [Compound A1, 3-{3-[5-(2-morpholin-4-ylethoxy)pyrimidin-2-yl]benzyl}-5-trifluoromethyl-3H-benzothiazol-2-one]"
4,10 to 1000,"O=c1sc2ccc(C(F)(F)F)cc2n1Cc1cccc(-c2ncc(-c3cnn(CCN4CCCC4)c3)cn2)c1 [Compound A9, 3-(3-{5-[1-(2-pyrrolidin-1-ylethyl)-1H-pyrazol-4-yl]pyrimidin-2-yl}benzyl)-5-trifluoromethyl-3H-benzothiazol-2-one]"
5,10 to 1000,"O=c1sc2ccc(Cl)cc2n1Cc1cccc(-c2ncc(OCCN3CCOCC3)cn2)c1 [Compound A2, 5-Chloro-3-{3-[5-(2-morpholin-4-ylethoxy)pyrimidin-2-yl]benzyl}-3H-benzothiazol-2-one]"
6,10 to 1000,"CC(=O)c1ccc2c(c1)sc(=O)n2Cc1cccc(-c2ncc(OCCN3CCOCC3)cn2)c1 [Compound A3, 6-Acetyl-3-{3-[5-(2-morpholin-4-ylethoxy)pyrimidin-2-yl]benzyl}-3H-benzothiazol-2-one]"
7,10 to 1000,"CN1CCC(COc2cnc(-c3cccc(Cn4c(=O)sc5ccc(C(F)(F)F)cc54)c3)nc2)CC1 [Compound A6, 3-{3-[5-(1-Methylpiperidin-4-ylmethoxy)pyrimidin-2-yl]benzyl}-5-trifluoromethyl-3H-benzothiazol-2-one]"

# The remaining lines, values behind:
row,Compound,IC50 [nM]
1,"O=c1sc2ccc(C(F)(F)F)cc2n1Cc1cccc(-c2ncc(OCC3CCNCC3)cn2)c1 [Compound A8, 3-{3-[5-(piperidin-4-ylmethoxy)pyrimidin-2-yl]benzyl}-5-trifluoromethyl-3H-benzothiazol-2-one]",10 to 1000
2,"Cn1cc(-c2ccc3sc(=O)n(Cc4cccc(-c5ncc(OCCN6CCOCC6)cn5)c4)c3c2)cn1 [Compound A10, 5-(1-methyl-1H-pyrazol-4-yl)-3-{3-[5-(2-morpholin-4-ylethoxy)pyrimidin-2-yl]benzyl}-3H-benzothiazol-2-one]",10 to 1000
3,"O=c1sc2ccc(Br)cc2n1Cc1cccc(-c2ncc(OCCN3CCOCC3)cn2)c1 [Compound A4, 5-Bromo-3-{3-[5-(2-morpholin-4-ylethoxy)pyrimidin-2-yl]benzyl}-3H-benzothiazol-2-one]",10 to 1000
4,"CC(C)(C)OC(=O)N1CCC(COc2cnc(-c3cccc(Cn4c(=O)sc5ccc(C(F)(F)F)cc54)c3)nc2)CC1 [Compound A7, 3-{3-[5-(1-tert-Butoxycarbonylpiperidin-4-ylmethoxy)pyrimidin-2-yl]-benzyl}-5-trifluoromethyl-3H-benzothiazol-2-one]",10 to 1000
5,"CN1CCN(c2cnc(-c3cccc(Cn4c(=O)sc5ccc(C(F)(F)F)cc54)c3)nc2)CC1 [Compound A11, 3-{3-[5-(4-methylpiperazin-1-yl)pyrimidin-2-yl]benzyl}-5-trifluoromethyl-3H-benzothiazol-2-one]",10 to 1000
6,"CCC(=O)c1ccc2c(c1)sc(=O)n2Cc1cccc(-c2ncc(OCCN3CCOCC3)cn2)c1 [Compound A3a, 3-{3-[5-(2-Morpholin-4-ylethoxy)pyrimidin-2-yl]benzyl}-6-propionyl-3H-benzothiazol-2-one]",10 to 1000
7,"CCOC(=O)Nc1cccc(Cn2c(=O)sc3ccc(Cl)cc32)c1 [Compound A14, ethyl [3-(5-chloro-2-oxobenzothiazol-3-ylmethyl)phenyl]carbamate]",10 to 1000
8,"CN(C)CCCOc1cnc(-c2cccc(Cn3c(=O)sc4ccc(C(F)(F)F)cc43)c2)nc1 [Compound A5, 3-{3-[5-(3-dimethylaminopropoxy)pyrimidin-2-yl]benzyl}-5-trifluoromethyl-3H-benzothiazol-2-one]",10 to 1000
